Measured values reported in PubChem BioAssay (NCI).
Where “and” joins values, the source holds several entries; their conditions need not be identical. Equal entries are not always repeated.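 96-well plates; 48 h exposure; 5 concentrations. Endpoints by linear interpolation between flanking doses. Not reached: highest tested concentration assigned. GI50 = concentration required for 50% inhibition of growth. The concentration for full growth arrest is given as TGI.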

How the values were obtained:
Assay in all cases: inhibition of tumour cell growth, NCI panel, 48 h
DMS 114 small cell lung = test system: DMS 114 small cell lung
NCI-H23 lung = test system: NCI-H23 lung
KM20L2 colon = test system: KM20L2 colon
A498 renal = test system: A498 renal
SNB-75 CNS = test system: SNB-75 CNS
LXFL 529 NSCLC = test system: LXFL 529 NSCLC
DLD-1 colon = test system: DLD-1 colon
M19-MEL melanoma = test system: M19-MEL melanoma
HS 578T breast = test system: HS 578T breast

Row | SMILES | TGI (DMS 114 small cell lung) [µM] | TGI (NCI-H23 lung) | TGI (KM20L2 colon) [µM] | TGI (A498 renal) | TGI (SNB-75 CNS) | TGI (LXFL 529 NSCLC) [µM] | TGI (DLD-1 colon) [µM] | TGI (M19-MEL melanoma) [µM] | GI50 (A498 renal) [µM] | GI50 (SNB-75 CNS) [µM] | GI50 (HS 578T breast) [µM] | TGI (HS 578T breast) | GI50 (DMS 114 small cell lung) [µM] | GI50 (NCI-H23 lung) [µM] | GI50 (KM20L2 colon) [µM] | GI50 (LXFL 529 NSCLC) [µM] | GI50 (DLD-1 colon) [µM] | GI50 (M19-MEL melanoma) [µM]
1 | COc1cc(Cl)c2c3c(c(C(C)=O)oc13)CCC2 | > 100 | > 100 µM | > 100 | > 100 µM | > 100 µM | > 100 | > 100 | > 100 |  |  |  |  |  |  |  |  |  | 
2 | CC(=O)c1cccc(N2COC(C)(C)c3nc4ccccc4n3C2)c1 | > 100 | > 100 µM | > 100 | > 100 µM | > 100 µM | > 100 | > 100 | > 100 |  |  |  |  |  |  |  |  |  | 
3 | Cc1c(NC(=O)C(C)(C)Br)c(=O)oc2c(C)c3occc(=O)c3cc12 | > 100 | > 100 µM | > 100 | 66.3 µM | > 100 µM | > 100 | > 100 |  |  |  |  |  |  |  |  |  |  | 
4 | CCN(CC)CCCC(C)Nc1c2ccc(Cl)cc2nc2ccc(OC)cc12 (stereo not drawn) | 3.1 | 4.11 µM and 3.27 µM | 3 | 6.93 µM and 5.11 µM | 6.66 µM and 3.05 µM | 2.95 | 4.39 | 3.14 | 1.64 | 2.35 | 2.46 | 8.27 µM and 14.8 µM |  |  |  |  |  | 
5 | CCCCCCCCC[C@@H]1CC(=O)OCC2OC(O[C@H](CCCCCCCCC)CC(=O)OCC3OC(O[C@H](CCCCCCCCC)CC(=O)OCC4OC(O1)C(O)C(O)C4O)C(O)C(O)C3O)C(O)C(O)C2O (stereo partly drawn) | 24 | 30.6 µM | 19.7 | 27.9 µM | 22.5 µM | 18 | 28.2 | 16.5 |  |  |  |  |  |  |  |  |  | 
6 | CCNC(=O)CCN(C(=O)O)S(=O)(=O)c1ccc(NC(=O)c2ccccc2)cc1 | > 100 | > 100 µM | > 100 | > 100 µM | > 100 µM | > 100 | > 100 | > 100 |  |  |  |  |  |  |  |  |  | 
7 | CC/C(C)=C1\CCC(CN2CCOCC2)C1=O (stereo not drawn) | 18.6 | 30.6 µM | 36.7 | 39.1 µM | 40.6 µM | 23.7 | 27 | 30 |  |  |  |  |  |  |  |  |  | 
8 | CC1C[C@@]2(c3ccccc3)C(=O)CCC[C@H]2N1 (stereo partly drawn) | > 100 | > 100 µM | > 100 | > 100 µM | > 100 µM | > 100 | > 100 | > 100 |  |  |  |  |  |  |  |  |  | 
9 | CC1=C(C(=O)Nc2ccccc2C)C(c2ccc(Cl)c(Cl)c2)C(C(=O)Nc2ccccc2C)=C(C)N1 | 41 | 56.7 µM | 34.8 | 61.8 µM | > 100 µM | 43.4 | > 100 | 45.2 |  |  |  |  |  |  |  |  |  | 
10 | O=C1OC(CC(=O)c2ccc(Cl)c(Cl)c2)C(Cl)=C1Cl (stereo not drawn) | > 100 | > 100 µM | > 100 | > 100 µM | > 100 µM | > 100 | > 100 | > 100 |  |  |  |  |  |  |  |  |  | 
11 | O=C(/C=C/c1ccc([N+](=O)[O-])o1)N1CCN(Cc2ccccc2)CC1 | 27.4 | 18.7 µM | 24.3 | 29.2 µM | 30.4 µM | 20.2 | 19.7 | 21.8 |  |  |  |  |  |  |  |  |  | 
12 | COC(=O)C1C(C(=O)OC)C2(OC)c3ccccc3-c3ccccc3C12 (stereo not drawn) | 87.9 | > 100 µM | 87.9 | > 100 µM | > 100 µM | > 100 | > 100 | > 100 |  |  |  |  |  |  |  |  |  | 
13 | CCOC(=O)C(N)C[S][Sn]([CH3])([CH3])[Cl] (stereo not drawn) | > 100 | > 100 µM | > 100 |  | > 100 µM | > 100 | > 100 | > 100 |  | 52.5 |  |  | 97.4 | > 100 | > 100 | 28.7 | > 100 | > 89.1
14 | CCCCOC(=O)NC(=O)c1cn(CCCOC(=O)CCCCCCCCC(=O)OCCCn2cc(C(=O)NC(=O)OCCCC)c(=O)[nH]c2=O)c(=O)[nH]c1=O | > 100 | > 100 µM | > 100 |  |  | > 100 | > 100 | > 100 |  |  |  |  |  |  |  |  |  | 
15 | NNC(=O)/C(=C/c1ccc(Cl)c(Cl)c1)NC(=O)c1ccccc1 | > 100 | > 100 µM | > 100 |  | > 100 µM | > 100 | > 100 | > 100 |  |  |  |  |  |  |  |  |  | 
16 | NC(=O)C(=Cc1ccc(C(O)P(=O)(O)O)cc1)C(N)=O (stereo not drawn) | > 100 | > 100 µM | > 100 | > 100 µM | > 100 µM | > 100 | > 100 | > 100 |  |  |  |  |  |  |  |  |  | 
17 | O=[N+]([O-])c1cccc(C2N3CCCCC3[C@@H]3c4[nH]c5ccccc5c4CCN23)c1 (stereo partly drawn) | 22.2 | 25.3 µM | 22.9 | 29.5 µM |  | 60.8 | 29.2 | 25 |  |  |  |  |  |  |  |  |  | 
18 | COc1ccc([N+]2=NC(c3ccc([N+](=O)[O-])cc3)=NN(c3ccccc3)C2)cc1 | > 100 | > 100 µM | > 100 | > 100 µM |  | > 100 | > 100 |  |  |  |  |  |  |  |  |  |  | 
19 | CCOC(=O)Nc1nc2ccc(Cn3cccc3)cc2[nH]1 | > 100 | > 100 µM | 12.9 | 41.6 µM | 2.11 µM | > 100 | > 100 | > 100 |  |  |  | > 100 µM |  |  |  |  |  | 
20 | c1ccc2c(c1)CCC/C2=N\OCC1CO1 (stereo not drawn) |  | > 100 µM | > 100 | > 100 µM | > 100 µM | > 100 | > 100 | > 100 |  |  |  |  |  |  |  |  |  | 
21 | O=[N+]([O-])c1cccc(/C=N\NS(=O)(=O)c2ccc(Cl)cc2)c1O |  | > 100 µM | > 100 | > 100 µM | > 100 µM | > 100 | > 100 | > 100 |  |  |  |  |  |  |  |  |  | 
22 | CCOC(=O)NC(=O)c1cn(CC(=O)NCC(=O)NCC(=O)NCCCN2CCN(CCCNC(=O)CNC(=O)CNC(=O)Cn3cc(C(=O)NC(=O)OCC)c(=O)[nH]c3=O)CC2)c(=O)[nH]c1=O | > 100 | > 100 µM | > 100 | > 100 µM | > 100 µM | > 100 | > 100 | > 100 |  |  |  |  |  |  |  |  |  | 
23 | O=C(Nc1cc(Cl)c(Cl)cc1Cl)C(=O)C1C=CCS1(=O)=O (stereo not drawn) | > 100 | > 100 µM | > 100 | > 100 µM | > 100 µM | > 100 | > 100 | > 100 |  |  |  |  |  |  |  |  |  | 
24 | CC(=O)OCC1OC(N2C(=O)C(=O)c3cc(C)ccc32)C(OC(C)=O)C(OC(C)=O)C1OC(C)=O (stereo not drawn) | > 100 | > 100 µM | > 100 | > 100 µM | > 100 µM | > 100 | > 100 | > 100 |  |  |  |  |  |  |  |  |  | 
25 | C=CC1(C(=O)O)CCC(C(C)(C)C)CC1 (stereo not drawn) | > 100 | > 100 µM | > 100 | > 100 µM | > 100 µM | > 100 | > 100 | > 100 |  |  |  |  |  |  |  |  |  | 
26 | Cc1[nH]c2ccccc2c1C1Cc2ccccc2N1C(=O)/C=C\C(=O)O (stereo not drawn) | 64.4 | > 100 µM | > 100 | > 100 µM | > 100 µM | 41.1 | > 100 | > 100 |  |  |  |  |  |  |  |  |  | 
27 | COc1ccc(NC(=O)C(=O)C(C(=O)c2ccccc2)C2OC(=O)c3ccccc32)c([N+](=O)[O-])c1 (stereo not drawn) | > 100 | > 100 µM | > 100 | > 100 µM | > 100 µM | > 100 | > 100 | > 100 |  |  |  |  |  |  |  |  |  | 
